Test [1] has as its target human EGFR (native sequence) (Homo sapiens, UniProt P00533). As to the kind of experiment: Kinase inhibitory activity against human EGFR (native sequence). It is filed as biochemical. Particulars: 10 μM ATP, read-out: IC50 for kinase inhibition, EGFR. Put shortly:
(§1)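 Ten-point dose-response curves were run in singlicate from a 3 μM top concentration, with ATP at 10 μM.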

The target in a further test is EGFR L858R (Homo sapiens, UniProt P00533, L858R). Briefly: Kinase inhibitory activity against EGFR bearing the L858R mutation. It is filed as biochemical. Particulars: 10 μM ATP, read-out: IC50 for kinase inhibition, EGFR L858R. The method, boiled down: as §1
The next test has as its target EGFR L858R/T790M (Homo sapiens, UniProt P00533, L858R/T790M). As to the kind of experiment: Kinase inhibitory activity against EGFR bearing the L858R/T790M double mutation. Particulars: 10 μM ATP, read-out: IC50 for kinase inhibition, EGFR L858R T790M. The test is classed as biochemical. The method, boiled down:
as §1

The target in test [2] is T1, BaF3 cells expressing the target EGFR mutations (Homo sapiens, UniProt P00533, T790M, cells depend on it, form not given).
T1 construct: IC50, BAF3 EGFR DEL T790M PURO POOL; other: BAF3 EGFR DEL T790M PURO POOL cells, MTT; other: BAF3 EGFR DEL T790M PURO POOL cells; MTT
As to the kind of experiment: Antiproliferative activity (MTT) against BaF3 cells expressing the target EGFR mutations. Particulars: BAF3 EGFR DEL T790M PURO POOL cells, read-out: IC50, BAF3 EGFR DEL T790M PURO POOL. It is filed as cell-based. Put shortly:
(§2)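 Growth inhibition of EGFR-mutant BaF3 cells was assessed with an MTT assay. A BaF3 line expressing wildtype EGFR served as comparator.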

Test [3] addresses T2, BaF3 cells expressing the target EGFR mutations (Homo sapiens, UniProt P00533, T790M/L858R, cells depend on it).
T2 construct: IC50, BAF3 EGFR L858R-T790M PURO POOL; other: BAF3 EGFR L858R-T790M PURO POOL cells, MTT; IC50, BAF3 EGFR L858R-T790M PURO POOL; other: BAF3 EGFR L858R-T790M PURO POOL cells; MTT
The test is described as above. It is filed as cell-based. Particulars: BAF3 EGFR L858R-T790M PURO POOL cells, read-out: IC50, BAF3 EGFR L858R-T790M PURO POOL. Put shortly:
as §2

The test system of test [4] is BaF3 cells expressing wildtype EGFR. As to the kind of experiment: Antiproliferative activity (MTT) against control BaF3 cells expressing wildtype EGFR. It is filed as cell-based. Particulars: Mus musculus. The method, boiled down:
as §2

The mark [5] stands for this setting: EGFR L858R/T790M double mutation.
[6] abbreviates: 10 pt curves, 3 μM top concentration.

Read-outs that look alike come from different tables or passages of the source. Where only a bound is given, the exact number is not on record here.

In general, IC50 refers to the point on the concentration scale where inhibition reaches its midpoint.

T1 sequence (P00533 with tags, fused parts or gaps DEL746-750/T790M, form open): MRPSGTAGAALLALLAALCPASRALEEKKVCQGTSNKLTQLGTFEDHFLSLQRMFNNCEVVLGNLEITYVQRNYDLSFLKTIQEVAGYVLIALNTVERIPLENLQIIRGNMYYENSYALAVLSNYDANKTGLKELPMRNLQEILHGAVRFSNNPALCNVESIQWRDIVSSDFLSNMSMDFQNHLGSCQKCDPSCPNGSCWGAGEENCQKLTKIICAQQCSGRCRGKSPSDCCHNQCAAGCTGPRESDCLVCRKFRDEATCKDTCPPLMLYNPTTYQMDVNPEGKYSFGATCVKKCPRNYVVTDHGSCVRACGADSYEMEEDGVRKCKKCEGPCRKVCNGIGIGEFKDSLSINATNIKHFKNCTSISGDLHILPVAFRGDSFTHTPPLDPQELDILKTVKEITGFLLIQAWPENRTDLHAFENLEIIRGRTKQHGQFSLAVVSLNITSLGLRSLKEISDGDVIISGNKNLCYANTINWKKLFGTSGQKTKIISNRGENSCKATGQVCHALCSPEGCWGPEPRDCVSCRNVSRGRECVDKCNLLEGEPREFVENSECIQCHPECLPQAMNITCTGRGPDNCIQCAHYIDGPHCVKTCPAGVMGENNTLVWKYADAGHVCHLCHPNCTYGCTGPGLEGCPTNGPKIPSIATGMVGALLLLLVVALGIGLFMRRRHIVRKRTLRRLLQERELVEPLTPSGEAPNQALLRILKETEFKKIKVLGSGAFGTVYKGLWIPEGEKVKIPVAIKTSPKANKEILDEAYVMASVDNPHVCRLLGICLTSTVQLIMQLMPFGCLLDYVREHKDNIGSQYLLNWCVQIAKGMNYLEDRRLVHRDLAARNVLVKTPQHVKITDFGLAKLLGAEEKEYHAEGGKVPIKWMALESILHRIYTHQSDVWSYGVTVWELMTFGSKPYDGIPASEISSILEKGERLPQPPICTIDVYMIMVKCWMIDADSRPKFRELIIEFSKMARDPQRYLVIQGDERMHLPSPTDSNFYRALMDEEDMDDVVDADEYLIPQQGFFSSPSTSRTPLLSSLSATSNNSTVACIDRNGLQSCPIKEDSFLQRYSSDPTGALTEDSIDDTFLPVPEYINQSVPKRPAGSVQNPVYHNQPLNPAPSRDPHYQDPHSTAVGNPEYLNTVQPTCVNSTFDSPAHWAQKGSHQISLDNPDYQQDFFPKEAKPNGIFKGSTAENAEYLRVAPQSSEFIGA
EGFR L858R/T790M, sequence (P00533 25-1210 T790M/L858R): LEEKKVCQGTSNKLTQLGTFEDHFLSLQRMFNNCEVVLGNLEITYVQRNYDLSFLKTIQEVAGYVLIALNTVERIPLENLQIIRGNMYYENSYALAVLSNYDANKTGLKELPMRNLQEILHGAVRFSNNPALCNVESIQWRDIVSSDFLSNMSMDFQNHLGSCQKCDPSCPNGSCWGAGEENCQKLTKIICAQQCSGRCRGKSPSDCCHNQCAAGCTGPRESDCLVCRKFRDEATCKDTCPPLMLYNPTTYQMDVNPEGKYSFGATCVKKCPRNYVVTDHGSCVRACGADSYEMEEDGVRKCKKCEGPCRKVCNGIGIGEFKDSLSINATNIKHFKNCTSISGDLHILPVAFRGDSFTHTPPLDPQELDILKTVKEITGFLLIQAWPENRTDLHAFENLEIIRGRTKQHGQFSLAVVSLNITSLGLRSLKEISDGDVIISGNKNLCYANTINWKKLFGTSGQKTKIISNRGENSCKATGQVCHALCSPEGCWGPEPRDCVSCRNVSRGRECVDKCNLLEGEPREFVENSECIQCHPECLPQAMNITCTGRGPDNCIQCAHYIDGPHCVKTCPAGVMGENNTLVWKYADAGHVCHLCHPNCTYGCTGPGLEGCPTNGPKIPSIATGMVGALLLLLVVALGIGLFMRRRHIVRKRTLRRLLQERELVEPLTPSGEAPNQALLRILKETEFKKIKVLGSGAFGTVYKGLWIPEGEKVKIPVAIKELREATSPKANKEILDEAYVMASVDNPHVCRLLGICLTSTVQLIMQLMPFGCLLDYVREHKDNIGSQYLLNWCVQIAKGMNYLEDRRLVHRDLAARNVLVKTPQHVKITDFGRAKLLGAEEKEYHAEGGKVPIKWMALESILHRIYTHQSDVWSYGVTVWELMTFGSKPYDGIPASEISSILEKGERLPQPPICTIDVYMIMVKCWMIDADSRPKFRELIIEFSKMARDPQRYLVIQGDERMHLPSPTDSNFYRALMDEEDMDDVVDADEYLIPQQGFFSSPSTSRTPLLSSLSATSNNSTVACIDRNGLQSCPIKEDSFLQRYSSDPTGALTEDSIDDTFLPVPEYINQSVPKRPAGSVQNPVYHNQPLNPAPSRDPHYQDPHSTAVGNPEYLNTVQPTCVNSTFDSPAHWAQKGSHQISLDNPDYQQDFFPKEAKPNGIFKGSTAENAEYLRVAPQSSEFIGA
EGFR L858R, sequence (P00533 25-1210 L858R): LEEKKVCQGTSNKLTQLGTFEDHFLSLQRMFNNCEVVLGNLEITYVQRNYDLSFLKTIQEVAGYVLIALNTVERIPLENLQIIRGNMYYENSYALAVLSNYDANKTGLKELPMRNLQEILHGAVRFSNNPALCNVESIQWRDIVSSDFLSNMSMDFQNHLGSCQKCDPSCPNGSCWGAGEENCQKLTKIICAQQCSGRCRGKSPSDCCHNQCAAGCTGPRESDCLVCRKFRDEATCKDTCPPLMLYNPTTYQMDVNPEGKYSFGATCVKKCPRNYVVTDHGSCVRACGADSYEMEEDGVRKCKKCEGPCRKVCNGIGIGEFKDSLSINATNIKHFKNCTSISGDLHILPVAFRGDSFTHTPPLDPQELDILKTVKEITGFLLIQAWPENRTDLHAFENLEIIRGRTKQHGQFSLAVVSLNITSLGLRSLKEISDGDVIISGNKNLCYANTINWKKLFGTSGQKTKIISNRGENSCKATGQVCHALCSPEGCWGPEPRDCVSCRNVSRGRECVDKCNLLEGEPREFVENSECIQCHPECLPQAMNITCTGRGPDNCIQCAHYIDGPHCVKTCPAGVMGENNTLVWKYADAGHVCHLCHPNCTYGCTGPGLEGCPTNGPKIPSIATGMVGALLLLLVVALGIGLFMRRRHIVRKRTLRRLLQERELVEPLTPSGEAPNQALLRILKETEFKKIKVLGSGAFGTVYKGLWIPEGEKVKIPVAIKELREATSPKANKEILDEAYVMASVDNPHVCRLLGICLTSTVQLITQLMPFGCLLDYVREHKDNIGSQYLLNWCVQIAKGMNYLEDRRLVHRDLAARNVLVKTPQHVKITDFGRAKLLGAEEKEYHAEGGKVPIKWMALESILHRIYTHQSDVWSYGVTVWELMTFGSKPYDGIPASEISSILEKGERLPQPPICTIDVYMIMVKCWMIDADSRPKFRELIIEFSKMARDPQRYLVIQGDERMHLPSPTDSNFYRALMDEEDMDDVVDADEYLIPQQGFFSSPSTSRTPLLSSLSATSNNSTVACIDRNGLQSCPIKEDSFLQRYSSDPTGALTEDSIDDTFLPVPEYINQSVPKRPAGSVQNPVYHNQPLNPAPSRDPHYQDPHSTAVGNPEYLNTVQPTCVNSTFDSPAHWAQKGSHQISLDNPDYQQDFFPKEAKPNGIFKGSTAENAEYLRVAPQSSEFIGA
human EGFR (native sequence), sequence (P00533 25-1210): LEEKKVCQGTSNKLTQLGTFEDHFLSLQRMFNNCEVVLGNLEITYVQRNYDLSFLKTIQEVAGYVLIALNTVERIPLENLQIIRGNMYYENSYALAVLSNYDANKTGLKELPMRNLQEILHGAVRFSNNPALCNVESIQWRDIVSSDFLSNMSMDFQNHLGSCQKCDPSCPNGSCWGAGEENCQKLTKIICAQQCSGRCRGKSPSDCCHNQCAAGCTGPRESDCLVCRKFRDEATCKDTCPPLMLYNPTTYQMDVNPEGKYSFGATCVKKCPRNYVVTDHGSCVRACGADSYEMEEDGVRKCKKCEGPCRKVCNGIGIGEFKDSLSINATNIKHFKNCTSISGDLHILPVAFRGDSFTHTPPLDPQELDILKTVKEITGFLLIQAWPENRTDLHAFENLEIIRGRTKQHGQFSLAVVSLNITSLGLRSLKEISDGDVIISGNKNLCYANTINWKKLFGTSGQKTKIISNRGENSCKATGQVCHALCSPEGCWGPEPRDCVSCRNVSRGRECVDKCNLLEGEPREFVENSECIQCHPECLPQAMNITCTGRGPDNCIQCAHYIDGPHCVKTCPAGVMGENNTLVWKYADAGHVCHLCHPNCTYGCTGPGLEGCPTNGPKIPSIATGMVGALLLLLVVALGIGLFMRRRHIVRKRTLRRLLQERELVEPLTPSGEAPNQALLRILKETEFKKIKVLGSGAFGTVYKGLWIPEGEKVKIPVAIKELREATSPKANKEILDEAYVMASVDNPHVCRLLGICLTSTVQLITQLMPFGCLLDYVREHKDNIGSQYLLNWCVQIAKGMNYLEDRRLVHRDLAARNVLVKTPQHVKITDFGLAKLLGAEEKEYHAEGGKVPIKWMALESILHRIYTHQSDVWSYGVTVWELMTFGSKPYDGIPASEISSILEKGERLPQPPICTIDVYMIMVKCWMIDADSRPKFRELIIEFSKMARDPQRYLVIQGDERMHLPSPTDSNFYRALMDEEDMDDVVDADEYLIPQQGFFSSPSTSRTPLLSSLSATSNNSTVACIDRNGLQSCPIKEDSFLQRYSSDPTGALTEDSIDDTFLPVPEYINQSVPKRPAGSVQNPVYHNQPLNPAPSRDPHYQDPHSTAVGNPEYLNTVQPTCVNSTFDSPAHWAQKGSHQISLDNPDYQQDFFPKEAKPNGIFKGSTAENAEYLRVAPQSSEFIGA

On to `C=CC(=O)Nc1cc(Nc2ncc(Cl)c(Nc3ccccc3P(C)(C)=O)n2)c(OC)cc1N1CCC(N2CCCC2)C1` (stereo not drawn) [Example 36, N-(2-([1,3′-bipyrrolidin]-1′-yl)-5-((5-chloro-4-((2-(dimethylphosphoryl)phenyl)amino)pyrimidin-2-yl)amino)-4-methoxyphenyl)acrylamide], for which the half-maximal inhibitory concentration (IC50) in test [1] (human EGFR native sequence) was < 50 nM; on EGFR L858R (EGFR L858R), < 50 nM; on EGFR L858R/T790M (setting [5]) it was < 50 nM; in test [4] (BAF3 PARENTAL cells (control)), ≥ 250 nM. The GI50 in test [2] and in test [3] was < 50 nM in each case.

For `C=CC(=O)Nc1cc(Nc2ncc(Cl)c(Nc3ccccc3P(C)(C)=O)n2)c(OC)cc1O[C@@H]1CCCN(C)C1` (single isomer, unassigned) [Example 14], the IC50 in test [1] (human EGFR native sequence) was < 50 nM; on EGFR L858R (EGFR L858R), < 50 nM; on EGFR L858R/T790M (setting [5]) it was < 50 nM; in test [4] (BAF3 PARENTAL cells (control)) it was ≥ 250 nM. The GI50 in test [2] and in test [3] was < 50 nM in each case.

As for `COc1ccc(NC(=O)/C=C/C2(N)CC2)cc1Nc1ncc(Cl)c(Nc2ccccc2P(C)(C)=O)n1` [Example 94, (E)-3-(1-aminocyclopropyl)-N-(3-((5-chloro-4-((2-(dimethylphosphoryl)phenyl)amino)pyrimidin-2-yl)amino)-4-methoxyphenyl)acrylamide], the IC50 is 101 to 250 nM in test [1] (human EGFR native sequence), < 50 nM on EGFR L858R (EGFR L858R), < 50 nM on EGFR L858R/T790M (setting [5]) and ≥ 250 nM in test [4] (BAF3 PARENTAL cells (control)). The GI50 in test [2] and in test [3] was ≥ 250 nM in each case.

As to `COc1ccc(NC(=O)/C=C/C(=O)N2CCN(C)CC2)cc1Nc1ncc(Cl)c(Nc2ccccc2P(C)(C)=O)n1` [Example 59, (E)—N-(3-((5-chloro-4-((2-(dimethylphosphoryl)phenyl)amino)pyrimidin-2-yl)amino)-4-methoxyphenyl)-4-(4-methylpiperazin-1-yl)-4-oxobut-2-enamide], the IC50 in test [1] (human EGFR native sequence) is < 50 nM; at EGFR L858R (EGFR L858R), < 50 nM; at EGFR L858R/T790M (setting [5]) it was < 50 nM; in test [4] (BAF3 PARENTAL cells (control)), ≥ 250 nM. In addition, the GI50 was 101 to 250 nM in test [2] and ≥ 250 nM in test [3].

Turning to `C=CC(=O)Nc1cc(Nc2ncc(Cl)c(Nc3ccccc3P(C)(C)=O)n2)c(OC)cc1N1CCC(N2CCN(CCO)CC2)C1` (stereo not drawn) [Example 40, N-(5-((5-chloro-4-((2-(dimethylphosphoryl)phenyl)amino)pyrimidin-2-yl)amino)-2-(3-(4-(2-hydroxyethyl)piperazin-1-yl)pyrrolidin-1-yl)-4-methoxyphenyl)acrylamide], the IC50 is < 50 nM in test [1] (human EGFR native sequence), < 50 nM at EGFR L858R (EGFR L858R), < 50 nM at EGFR L858R/T790M (setting [5]) and ≥ 250 nM in test [4] (BAF3 PARENTAL cells (control)). Further, the GI50 in test [2] and in test [3] was ≥ 250 nM each time.

In the case of `COc1cc(F)c(NC(=O)C#CCN(C)C)cc1Nc1ncc(Cl)c(Nc2ccccc2P(C)(C)=O)n1` [Example 87, N-(5-((5-chloro-4-((2-(dimethylphosphoryl)phenyl)amino)pyrimidin-2-yl)amino)-2-fluoro-4-methoxyphenyl)-4-(dimethylamino)but-2-ynamide], the IC50 is < 50 nM in test [1] (human EGFR native sequence), < 50 nM on EGFR L858R (EGFR L858R), < 50 nM at EGFR L858R/T790M (setting [5]) and 101 to 250 nM in test [4] (BAF3 PARENTAL cells (control)). Also, the GI50 in test [2] and in test [3] was < 50 nM each time.

With `C=CC(=O)Nc1cc(Nc2ncc(Cl)c(Nc3ccccc3P(C)(C)=O)n2)c(OC)cc1N1CCC(N2CCCC2)CC1` [Example 72, N-(5-((5-chloro-4-((2-(dimethylphosphoryl)phenyl)amino)pyrimidin-2-yl)amino)-4-methoxy-2-(4-(pyrrolidin-1-yl)piperidin-1-yl)phenyl)acrylamide], the 50% inhibitory concentration (IC50) was 50 to 100 nM in test [1] (human EGFR native sequence), < 50 nM at EGFR L858R (EGFR L858R), < 50 nM at EGFR L858R/T790M (setting [5]) and ≥ 250 nM in test [4] (BAF3 PARENTAL cells (control)). Moreover, the figures for the GI50 in test [2] and in test [3] were < 50 nM and 101 to 250 nM, respectively.

For `C=CC(=O)Nc1cc(Nc2ncc(Cl)c(Nc3ccc(OCCN4CCCC4)cc3P(C)(C)=O)n2)c(OC)cc1F` [Example 98, N-(5-((5-chloro-4-((2-(dimethylphosphoryl)-4-(2-(pyrrolidin-1-yl)ethoxy)phenyl)amino)pyrimidin-2-yl)amino)-2-fluoro-4-methoxyphenyl)acrylamide], the 50% inhibitory concentration (IC50) in test [1] (human EGFR native sequence) was < 50 nM; at EGFR L858R (EGFR L858R), < 50 nM; at EGFR L858R/T790M (setting [5]), < 50 nM; in test [4] (BAF3 PARENTAL cells (control)), ≥ 250 nM. Also, the GI50 in test [2] and in test [3] was < 50 nM in each case.

`CC#CC(=O)Nc1cc(Nc2ncc(Cl)c(Nc3ccccc3P(C)(C)=O)n2)c(OC)cc1N1CCC(N2CCN(C)CC2)CC1` [Example 106, N-(5-((5-chloro-4-((2-(dimethylphosphoryl)phenyl)amino)pyrimidin-2-yl)amino)-4-methoxy-2-(4-(4-methylpiperazin-1-yl)piperidin-1-yl)phenyl)but-2-ynamide]: the IC50 was 50 to 100 nM in test [1] (setting [6]), < 50 nM on EGFR L858R (setting [6]), < 50 nM at EGFR L858R/T790M (setting [6]) and ≥ 250 nM in test [4] (BAF3 parental cells). Also, the GI50 in test [2] and in test [3] was < 50 nM throughout.

As to `C=CC(=O)Nc1cc(Nc2ncc(Cl)c(Nc3ccccc3P(C)(C)=O)n2)c(OC)cc1C#CC1(N(C)C)CC1` [Example 73, N-(5-((5-chloro-4-((2-(dimethylphosphoryl)phenyl)amino)pyrimidin-2-yl)amino)-2-((1-(dimethylamino)cyclopropyl)ethynyl)-4-methoxyphenyl)acrylamide], the half-maximal inhibitory concentration (IC50) was ≥ 250 nM in test [1] (human EGFR native sequence), < 50 nM on EGFR L858R (EGFR L858R), < 50 nM on EGFR L858R/T790M (setting [5]) and ≥ 250 nM in test [4] (BAF3 PARENTAL cells (control)). Further, the GI50 in test [2] and in test [3] was 101 to 250 nM throughout.

As for `CNC(=O)/C=C\C(=O)Nc1ccc(OC)c(Nc2ncc(Cl)c(Nc3ccccc3P(C)(C)=O)n2)c1` [Example 110, N1-(3-((5-chloro-4-((2-(dimethylphosphoryl)phenyl)amino)pyrimidin-2-yl)amino)-4-methoxyphenyl)-N4-methylmaleamide], the half-inhibitory concentration (IC50) in test [1] (setting [6]) was ≥ 250 nM; at EGFR L858R (setting [6]), < 50 nM; at EGFR L858R/T790M (setting [6]), < 50 nM; in test [4] (BAF3 parental cells), ≥ 250 nM. Also, the GI50 is < 50 nM in test [2] and 101 to 250 nM in test [3].

`C=C(CN1CCS(=O)(=O)CC1)C(=O)Nc1ccc(OC)c(Nc2ncc(Cl)c(Nc3ccccc3P(C)(C)=O)n2)c1` [Example 46, N-(3-((5-chloro-4-((2-(dimethylphosphoryl)phenyl)amino)pyrimidin-2-yl)amino)-4-methoxyphenyl)-2-((1,1-dioxidothiomorpholino)methyl)acrylamide]: the IC50 in test [1] (human EGFR native sequence) was ≥ 250 nM; on EGFR L858R (EGFR L858R), 50 to 100 nM; on EGFR L858R/T790M (setting [5]), < 50 nM; in test [4] (BAF3 PARENTAL cells (control)) it was ≥ 250 nM. Further, the GI50 in test [2] and in test [3] was ≥ 250 nM each time.

For `C=CC(=O)Nc1cc(Nc2ncc(Cl)c(Nc3ccccc3P(C)(C)=O)n2)c(OC)cc1C#CCN1CCCC1` [Example 157, N-(5-((5-chloro-4-((2-(dimethylphosphoryl)phenyl)amino)pyrimidin-2-yl)amino)-4-methoxy-2-(3-(pyrrolidin-1-yl)prop-1-yn-1-yl)phenyl)acrylamide], the IC50 in test [1] (setting [6]) is < 50 nM; at EGFR L858R (setting [6]), < 50 nM; on EGFR L858R/T790M (setting [6]), < 50 nM; in test [4] (BAF3 parental cells), ≥ 250 nM. The GI50 in test [2] and in test [3] was < 50 nM throughout.

As for `C=CC(=O)Nc1cc(Nc2ncc(Cl)c(Nc3ccccc3P(C)(C)=O)n2)c(OC)cc1C` [Example 133, N-(5-((5-chloro-4-((2-(dimethylphosphoryl)phenyl)amino)pyrimidin-2-yl)amino)-4-methoxy-2-methylphenyl)acrylamide], the half-inhibitory concentration (IC50) in test [1] (setting [6]) is < 50 nM; at EGFR L858R (setting [6]), < 50 nM; at EGFR L858R/T790M (setting [6]), < 50 nM; in test [4] (BAF3 parental cells), ≥ 250 nM. The GI50 in test [2] and in test [3] was < 50 nM throughout.

For `COc1ccc(NS(=O)(=O)CCl)cc1Nc1ncc(Cl)c(Nc2ccccc2P(C)(C)=O)n1` [Example 150, 1-chloro-N-(3-((5-chloro-4-((2-(dimethylphosphoryl)phenyl)amino)pyrimidin-2-yl)amino)-4-methoxyphenyl)methanesulfonamide], the half-maximal inhibitory concentration (IC50) (in test [1] (setting [6]); at EGFR L858R (setting [6]); at EGFR L858R/T790M (setting [6]); in test [4] (BAF3 parental cells)) was ≥ 250 nM each time. For the same compound, the GI50 in test [2] and in test [3] was ≥ 250 nM each time.

The values above are taken from patent US9834571B2, “Compounds for inhibiting cell proliferation in EGFR-driven cancers” (ARIAD Pharmaceuticals, Inc., priority 2012, dated 2017).
